In US20230085307A1, “PYRIDAZINONE COMPOUND AND HERBICIDE” (NISSAN CHEMICAL CORPORATION, priority 2019, published 2023):

Assays:
southern crabgrass [1] = experiment: Test Example 4: herbicidal effect by soil treatment (Table 19, symbol F); type: in vivo, southern crabgrass (Digitaria ciliaris); conditions: amount of applied herbicide 320 g/ha
Procedure, shortened: (§1)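 Soil-surface application: an emulsion agent diluted with water to the predetermined dose is sprayed uniformly over seeds lying under roughly 1.5 cm of sterilized diluvial soil. Boxes stay in a greenhouse at 25° C. to 30° C. Three weeks later, each species is graded on previously defined criteria.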

Italian ryegrass [2] = experiment: Test Example 5: herbicidal effect by foliage application, plastic box (Table 20, symbol K); type: in vivo, Italian ryegrass (Lolium multiflorum); conditions: foliage application, three weeks after application
Procedure, shortened: (§2)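 Sow seeds spot-wise in sterilized diluvial soil; cover with ~1.5 cm soil. Grow 14 days in greenhouse, 25° C. to 30° C. Spray foliage with emulsion diluted to predetermined amount. Rate effect after 3 weeks.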

wild oat [3] = experiment: Test Example 4: herbicidal effect by soil treatment (Table 19, symbol I); type: in vivo, wild oat (Avena fatua); conditions: amount of applied herbicide 320 g/ha
Procedure, shortened: as §1

velvetleaf [4] = experiment: Test Example 4: herbicidal effect by soil treatment (Table 19, symbol M); type: in vivo, velvetleaf (Abutilon theophrasti); conditions: amount of applied herbicide 320 g/ha
Procedure, shortened: as §1

chickweed [5] = experiment: Test Example 4: herbicidal effect by soil treatment (Table 19, symbol P); type: in vivo, common chickweed (Stellaria media); conditions: amount of applied herbicide 320 g/ha
Procedure, shortened: as §1

wild oat [6] = experiment: Test Example 5: herbicidal effect by foliage application, plastic box (Table 20, symbol I); type: in vivo, wild oat (Avena fatua); conditions: foliage application, three weeks after application
Procedure, shortened: as §2

southern crabgrass [7] = experiment: Test Example 5: herbicidal effect by foliage application, plastic box (Table 20, symbol F); type: in vivo, southern crabgrass (Digitaria ciliaris); conditions: foliage application, three weeks after application
Procedure, shortened: as §2

Italian ryegrass [8] = experiment: Test Example 4: herbicidal effect by soil treatment (Table 19, symbol K); type: in vivo, Italian ryegrass (Lolium multiflorum); conditions: amount of applied herbicide 320 g/ha
Procedure, shortened: as §1

redroot pigweed [9] = experiment: Test Example 4: herbicidal effect by soil treatment (Table 19, symbol N); type: in vivo, redroot pigweed (Amaranthus retroflexus); conditions: amount of applied herbicide 320 g/ha
Procedure, shortened: as §1

barnyard grass [10] = experiment: Test Example 5: herbicidal effect by foliage application, plastic box (Table 20, symbol H); type: in vivo, barnyard grass (Echinochloa crus-galli); conditions: foliage application, three weeks after application
Procedure, shortened: as §2

windgrass [11] = experiment: Test Example 5: herbicidal effect by foliage application, plastic box (Table 20, symbol L); type: in vivo, windgrass (Apera spica-venti); conditions: foliage application, three weeks after application
Procedure, shortened: as §2

lambsquarters [12] = experiment: Test Example 4: herbicidal effect by soil treatment (Table 19, symbol O); type: in vivo, lambsquarters (Chenopodium album); conditions: amount of applied herbicide 320 g/ha
Procedure, shortened: as §1

green foxtail [13] = experiment: Test Example 4: herbicidal effect by soil treatment (Table 19, symbol G); type: in vivo, green foxtail (Setaria viridis); conditions: amount of applied herbicide 320 g/ha
Procedure, shortened: as §1

rice flat sedge = experiment: Test Example 3: herbicidal effect by foliage application, Wagner pot (Table 18, symbol E); type: in vivo, rice flat sedge (Cyperus iria); conditions: 320 g/ha
Procedure, shortened: (§3)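 Plants were sown in alluvial soil held under 0.1–0.5 cm standing water and grown 14 days in a greenhouse at 25–30 °C. An emulsifiable formulation, water-diluted to the set dose, was then sprayed onto the foliage, and effects were scored three weeks later using previously defined criteria.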

redroot pigweed [14] = experiment: Test Example 5: herbicidal effect by foliage application, plastic box (Table 20, symbol N); type: in vivo, redroot pigweed (Amaranthus retroflexus); conditions: foliage application, three weeks after application
Procedure, shortened: as §2

false cleavers [15] = experiment: Test Example 5: herbicidal effect by foliage application, plastic box (Table 20, symbol Q); type: in vivo, false cleavers (Galium spurium); conditions: foliage application, three weeks after application
Procedure, shortened: as §2

windgrass [16] = experiment: Test Example 4: herbicidal effect by soil treatment (Table 19, symbol L); type: in vivo, windgrass (Apera spica-venti); conditions: amount of applied herbicide 320 g/ha
Procedure, shortened: as §1

persian speedwell [17] = experiment: Test Example 5: herbicidal effect by foliage application, plastic box (Table 20, symbol R); type: in vivo, Persian speedwell (Veronica persica); conditions: foliage application, three weeks after application
Procedure, shortened: as §2

blackgrass [18] = experiment: Test Example 5: herbicidal effect by foliage application, plastic box (Table 20, symbol J); type: in vivo, blackgrass (Alopecurus myosuroides); conditions: foliage application, three weeks after application
Procedure, shortened: as §2

barnyard grass [19] = experiment: Test Example 3: herbicidal effect by foliage application, Wagner pot (Table 18, symbol H); type: in vivo, barnyard grass (Echinochloa crus-galli); conditions: 320 g/ha
Procedure, shortened: as §3

lambsquarters [20] = experiment: Test Example 5: herbicidal effect by foliage application, plastic box (Table 20, symbol O); type: in vivo, lambsquarters (Chenopodium album); conditions: foliage application, three weeks after application
Procedure, shortened: as §2

chickweed [21] = experiment: Test Example 5: herbicidal effect by foliage application, plastic box (Table 20, symbol P); type: in vivo, common chickweed (Stellaria media); conditions: foliage application, three weeks after application
Procedure, shortened: as §2

green foxtail [22] = experiment: Test Example 5: herbicidal effect by foliage application, plastic box (Table 20, symbol G); type: in vivo, green foxtail (Setaria viridis); conditions: foliage application, three weeks after application
Procedure, shortened: as §2

Chinese sprangletop = experiment: Test Example 3: herbicidal effect by foliage application, Wagner pot (Table 18, symbol D); type: in vivo, chinese sprangletop (Leptochloa chinensis); conditions: 320 g/ha
Procedure, shortened: as §3

barnyard grass [23] = experiment: Test Example 4: herbicidal effect by soil treatment (Table 19, symbol H); type: in vivo, barnyard grass (Echinochloa crus-galli); conditions: amount of applied herbicide 320 g/ha
Procedure, shortened: as §1

false cleavers [24] = experiment: Test Example 4: herbicidal effect by soil treatment (Table 19, symbol Q); type: in vivo, false cleavers (Galium spurium); conditions: amount of applied herbicide 320 g/ha
Procedure, shortened: as §1

velvetleaf [25] = experiment: Test Example 5: herbicidal effect by foliage application, plastic box (Table 20, symbol M); type: in vivo, velvetleaf (Abutilon theophrasti); conditions: foliage application, three weeks after application
Procedure, shortened: as §2

blackgrass [26] = experiment: Test Example 4: herbicidal effect by soil treatment (Table 19, symbol J); type: in vivo, blackgrass (Alopecurus myosuroides); conditions: amount of applied herbicide 320 g/ha
Procedure, shortened: as §1

persian speedwell [27] = experiment: Test Example 4: herbicidal effect by soil treatment (Table 19, symbol R); type: in vivo, Persian speedwell (Veronica persica); conditions: amount of applied herbicide 320 g/ha
Procedure, shortened: as §1

Structure (SMILES) | herbicidal effect rating, F: southern crabgrass (southern crabgrass [1]) | herbicidal effect rating, I: wild oat (wild oat [3]) | herbicidal effect rating, M: velvetleaf (velvetleaf [4]) | herbicidal effect rating, P: chickweed (chickweed [5]) | herbicidal effect rating, K: Italian ryegrass (Italian ryegrass [8]) | herbicidal effect rating, N: redroot pigweed (redroot pigweed [9]) | herbicidal effect rating, O: lambsquarters (lambsquarters [12]) | herbicidal effect rating, G: green foxtail (green foxtail [13]) | herbicidal effect on E (rice flat sedge), rating 0-5 (rice flat sedge) | herbicidal effect rating, L: windgrass (windgrass [16]) | herbicidal effect on H (barnyard grass), rating 0-5 (barnyard grass [19]) | herbicidal effect on D (Chinese sprangletop), rating 0-5 (Chinese sprangletop) | herbicidal effect rating, H: barnyard grass (barnyard grass [23]) | herbicidal effect rating, Q: false cleavers (false cleavers [24]) | herbicidal effect rating, J: blackgrass (blackgrass [26]) | herbicidal effect rating, R: persian speedwell (persian speedwell [27]) | also measured
Cc1nn(C)c(=O)c(-c2c(-c3ccsc3)sc3ccccc23)c1O [1-083] | 0 (Herbicidal rate of 5% or less (almost no effect)) | 2 (Herbicidal rate of 20% or more and less than 40%) | 0 (Herbicidal rate of 5% or less (almost no effect)) | 5 (Herbicidal rate of 90% or more (almost completely withered)) | 3 (Herbicidal rate of 40% or more and less than 70%) | 0 (Herbicidal rate of 5% or less (almost no effect)) | 0 (Herbicidal rate of 5% or less (almost no effect)) | 0 (Herbicidal rate of 5% or less (almost no effect)) | 4 (Herbicidal rate of 70% or more and less than 90%) | 0 (Herbicidal rate of 5% or less (almost no effect)) | 3 (Herbicidal rate of 40% or more and less than 70%) | 3 (Herbicidal rate of 40% or more and less than 70%) | 0 (Herbicidal rate of 5% or less (almost no effect)) | 3 (Herbicidal rate of 40% or more and less than 70%) | 0 (Herbicidal rate of 5% or less (almost no effect)) | 5 (Herbicidal rate of 90% or more (almost completely withered)) | herbicidal effect grade, K: Italian ryegrass (Italian ryegrass [2]; 320 g/ha): 4 (Herbicidal rate of 70% or more and less than 90%); herbicidal effect grade, I: wild oat (wild oat [6]; 320 g/ha): 3 (Herbicidal rate of 40% or more and less than 70%); herbicidal effect grade, F: southern crabgrass (southern crabgrass [7]; 320 g/ha): 2 (Herbicidal rate of 20% or more and less than 40%); herbicidal effect grade, H: barnyard grass (barnyard grass [10]; 320 g/ha): 0 (Herbicidal rate of 5% or less (almost no effect)); herbicidal effect grade, L: windgrass (windgrass [11]; 320 g/ha): 3 (Herbicidal rate of 40% or more and less than 70%); herbicidal effect grade, N: redroot pigweed (redroot pigweed [14]; 320 g/ha): 3 (Herbicidal rate of 40% or more and less than 70%); herbicidal effect grade, Q: false cleavers (false cleavers [15]; 320 g/ha): 4 (Herbicidal rate of 70% or more and less than 90%); herbicidal effect grade, R: persian speedwell (persian speedwell [17]; 320 g/ha): 3 (Herbicidal rate of 40% or more and less than 70%); herbicidal effect grade, J: blackgrass (blackgrass [18]; 320 g/ha): 1 (Herbicidal rate of 5% or more and less than 20%); herbicidal effect grade, O: lambsquarters (lambsquarters [20]; 320 g/ha): 0 (Herbicidal rate of 5% or less (almost no effect)); herbicidal effect grade, P: chickweed (chickweed [21]; 320 g/ha): 5 (Herbicidal rate of 90% or more (almost completely withered)); herbicidal effect grade, G: green foxtail (green foxtail [22]; 320 g/ha): 0 (Herbicidal rate of 5% or less (almost no effect)); herbicidal effect grade, M: velvetleaf (velvetleaf [25]; 320 g/ha): 5 (Herbicidal rate of 90% or more (almost completely withered))
Cc1nn(C)c(=O)c(-c2c(-c3cccc4c3OCC4)sc3ccccc23)c1O [1-103] | 2 (Herbicidal rate of 20% or more and less than 40%) | 0 (Herbicidal rate of 5% or less (almost no effect)) | 0 (Herbicidal rate of 5% or less (almost no effect)) | 1 (Herbicidal rate of 5% or more and less than 20%) | 0 (Herbicidal rate of 5% or less (almost no effect)) | 3 (Herbicidal rate of 40% or more and less than 70%) | 3 (Herbicidal rate of 40% or more and less than 70%) | 3 (Herbicidal rate of 40% or more and less than 70%) | 3 (Herbicidal rate of 40% or more and less than 70%) | 0 (Herbicidal rate of 5% or less (almost no effect)) | 3 (Herbicidal rate of 40% or more and less than 70%) | 4 (Herbicidal rate of 70% or more and less than 90%) | 2 (Herbicidal rate of 20% or more and less than 40%) | 0 (Herbicidal rate of 5% or less (almost no effect)) | 0 (Herbicidal rate of 5% or less (almost no effect)) | 2 (Herbicidal rate of 20% or more and less than 40%) | K: Italian ryegrass, herbicidal effect (Italian ryegrass [2]; AAH 320 g/ha): 3 (Herbicidal rate of 40% or more and less than 70%); I: wild oat, herbicidal effect (wild oat [6]; AAH 320 g/ha): 0 (Herbicidal rate of 5% or less (almost no effect)); F: southern crabgrass, herbicidal effect (southern crabgrass [7]; AAH 320 g/ha): 3 (Herbicidal rate of 40% or more and less than 70%); H: barnyard grass, herbicidal effect (barnyard grass [10]; AAH 320 g/ha): 0 (Herbicidal rate of 5% or less (almost no effect)); L: windgrass, herbicidal effect (windgrass [11]; AAH 320 g/ha): 0 (Herbicidal rate of 5% or less (almost no effect)); N: redroot pigweed, herbicidal effect (redroot pigweed [14]; AAH 320 g/ha): 3 (Herbicidal rate of 40% or more and less than 70%); Q: false cleavers, herbicidal effect (false cleavers [15]; AAH 320 g/ha): 4 (Herbicidal rate of 70% or more and less than 90%); R: persian speedwell, herbicidal effect (persian speedwell [17]; AAH 320 g/ha): 5 (Herbicidal rate of 90% or more (almost completely withered)); J: blackgrass, herbicidal effect (blackgrass [18]; AAH 320 g/ha): 3 (Herbicidal rate of 40% or more and less than 70%); O: lambsquarters, herbicidal effect (lambsquarters [20]; AAH 320 g/ha): 3 (Herbicidal rate of 40% or more and less than 70%); P: chickweed, herbicidal effect (chickweed [21]; AAH 320 g/ha): 5 (Herbicidal rate of 90% or more (almost completely withered)); G: green foxtail, herbicidal effect (green foxtail [22]; AAH 320 g/ha): 3 (Herbicidal rate of 40% or more and less than 70%); M: velvetleaf, herbicidal effect (velvetleaf [25]; AAH 320 g/ha): 4 (Herbicidal rate of 70% or more and less than 90%)
